# Results reported in US9957261B2 (Hoffmann-La Roche Inc., priority 2014, dated 2018).
# Columns and labels:
# [1] = target: rat TAAR1 (Rattus norvegicus (Rat), UniProt Q923Y9); assay: Radioligand binding assay on rat TAAR1; conditions: rat TAAR1, membranes of stably transfected HEK-293 cells; second value of mouse/rat pair
# Method: (§1) Construction of TAAR Expression Plasmids and Stably Transfected Cell Lines
# (§2) For the construction of expression plasmids the coding sequences of human, rat and mouse TAAR 1 were amplified from genomic DNA essentially as described by Lindemann et al.. The Expand High Fidelity PCR System (Roche Diagnostics) was used with 1.5 mM Mg^2+ and purified PCR products were cloned into pCR2.1-TOPO cloning vector (Invitrogen) following the instructions of the manufacturer. PCR products were subcloned into the pIRESneo2 vector (BD Clontech, Palo Alto, Calif.), and expression vectors were sequence verified before introduction in cell lines.
# (§3) HEK293 cells (ATCC # CRL-1573) were cultured essentially as described by Lindemann et al. (2005). For the generation of stably transfected cell lines HEK293 cells were transfected with the pIRESneo2 expression plasmids containing the TAAR coding sequences (described above) with Lipofectamine 2000 (Invitrogen) according to the instructions of the manufacturer, and 24 hrs post transfection the culture medium was supplemented with 1 mg/ml G418 (Sigma, Buchs, Switzerland). After a culture period of about 10 d clones were isolated, expanded and tested for responsiveness to trace amines (all compounds purchased from Sigma) with the cAMP Biotrak Enzyme immunoassay (EIA) System (Amersham) following the non-acetylation EIA procedure provided by the manufacturer.
# Radioligand Binding Assay on Rat TAAR1
# (§4) Membrane Preparation and Radioligand Binding.
# (§5) HEK-293 cells stably expressing rat TAAR1 were maintained at 37° C. and 5% CO2 in DMEM high glucose medium, containing fetal calf serum (10%, heat inactivated for 30 min at 56° C.), penicillin/streptomycin (1%), and 375 μg/ml geneticin (Gibco). Cells were released from culture flasks using trypsin/EDTA, harvested, washed twice with ice-cold PBS (without Ca^2+ and Mg^2+), pelleted at 1′000 rpm for 5 min at 4° C., frozen and stored at −80° C. Frozen pellets were suspended in 20 ml HEPES-NaOH (20 mM, pH 7.4) containing 10 mM EDTA and homogenized with a Polytron (PT 6000, Kinematica) at 14,000 rpm for 20 s. The homogenate was centrifuged at 48,000×g for 30 min at 4° C. Subsequently, the supernatant was removed and discarded, and the pellet resuspended in 20 ml HEPES-NaOH (20 mM, pH 7.4) containing 0.1 mM EDTA using the Polytron (20 s at 14,000 rpm). This procedure was repeated and the final pellet resuspended in HEPES-NaOH containing 0.1 mM EDTA and homogenized using the Polytron. Typically, aliquots of 2 ml membrane portions were stored at −80° C. With each new membrane batch the dissociation constant (Kd) was determined via a saturation curve. […] Nonspecific binding was defined as the amount of [H]—(S)-4-[(ethyl-phenyl-amino)-methyl]-4,5-dihydro-oxazol-2-ylamine bound in the presence of 10 μM unlabeled ligand. All compounds were tested at a broad range of concentrations (10 pM to 10 μM) in duplicates. […] The 96 deep well plates were incubated for 1 hr at 4° C. Incubations were terminated by rapid filtration through Unifilter-96 plates (Packard Instrument Company) and glass filters GF/C (Perkin Elmer) presoaked for 1 hr in polyethylenimine (0.3%) and washed 3 times with 1 ml of cold binding buffer. After addition of 45 μl of Microscint 40 (PerkinElmer) the Unifilter-96 plate was sealed and after 1 hr the radioactivity counted using a TopCount Microplate Scintillation Counter (Packard Instrument Company).
# [2] = target: mouse TAAR1 (Mus musculus (Mouse), UniProt Q923Y8); assay: Radioligand binding assay on mouse TAAR1; conditions: mouse TAAR1, membranes of stably transfected HEK-293 cells; first value of mouse/rat pair
# mouse TAAR1, sequence (Q923Y8 whole entry): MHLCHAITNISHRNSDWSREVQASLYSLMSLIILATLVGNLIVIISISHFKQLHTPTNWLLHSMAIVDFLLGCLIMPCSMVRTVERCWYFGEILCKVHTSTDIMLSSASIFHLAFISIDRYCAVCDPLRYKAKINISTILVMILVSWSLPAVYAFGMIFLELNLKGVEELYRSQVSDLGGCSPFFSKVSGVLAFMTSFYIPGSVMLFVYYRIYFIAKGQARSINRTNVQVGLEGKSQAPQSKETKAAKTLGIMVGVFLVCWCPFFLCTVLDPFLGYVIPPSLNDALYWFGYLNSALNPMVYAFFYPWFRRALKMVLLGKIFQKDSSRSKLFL
# Method: as §1, §2, §3
# Radioligand Binding Assay on Mouse TAAR1
# as §4
# as §5, with “expressing mouse” for “expressing rat”, “of ^3[H]—(S)-4-[(ethyl-phenyl-amino)-methyl]-4,5-dihydro-oxazol-2-ylamine” for “of [H]—(S)-4-[(ethyl-phenyl-amino)-methyl]-4,5-dihydro-oxazol-2-ylamine”
# rat TAAR1, sequence (Q923Y9 whole entry): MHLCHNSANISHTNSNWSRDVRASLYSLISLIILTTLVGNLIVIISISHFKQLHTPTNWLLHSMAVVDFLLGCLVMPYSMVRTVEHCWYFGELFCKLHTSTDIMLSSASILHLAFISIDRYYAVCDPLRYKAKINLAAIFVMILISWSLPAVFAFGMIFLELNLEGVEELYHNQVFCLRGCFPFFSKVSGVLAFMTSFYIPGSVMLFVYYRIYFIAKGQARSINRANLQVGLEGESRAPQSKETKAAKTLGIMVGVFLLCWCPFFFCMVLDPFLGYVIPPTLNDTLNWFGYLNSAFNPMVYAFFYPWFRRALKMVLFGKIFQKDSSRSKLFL
Structure (SMILES),Ki [1],Ki [2]
"CCCc1cc(C(=O)Nc2ccc3c(c2)OC[C@H](N)C3)nn1CC(F)F [Example 10, (R)—N-(3-Aminochroman-7-yl)-1-(2,2-difluoroethyl)-5-propyl-1H-pyrazole-3-carboxamide]",0.0034 µM,0.0111 µM
"CCn1nc(C(=O)Nc2ccc3c(c2)CC[C@H](N)C3)c(Br)c1OCC(F)F [Example 52, (S)—N-(6-Amino-5,6,7,8-tetrahydronaphthalen-2-yl)-4-bromo-5-(2,2-difluoroethoxy)-1-ethyl-1H-pyrazole-3-carboxamide]",0.0016 µM,0.0128 µM
"CCCc1cc(C(=O)Nc2ccc3c(c2)CC[C@@H](N)C3)nn1CC(F)F [Example 4, (R)—N-(6-Amino-5,6,7,8-tetrahydronaphthalen-2-yl)-1-(2,2-difluoroethyl)-5-propyl-1H-pyrazole-3-carboxamide]",0.0055 µM,0.0914 µM
"N[C@@H]1CCc2cc(NC(=O)c3ccccc3Cl)ccc2C1 [Example 15, (R)—N-(6-Amino-5,6,7,8-tetrahydronaphthalen-2-yl)-2-chlorobenzamide]",0.6 µM,1.97 µM
"N[C@H]1CCc2cc(NCc3ccc(Cl)cc3)ccc2C1 [Example 75, (S)—N6-(4-Chlorobenzyl)-1,2,3,4-tetrahydronaphthalene-2,6-diamine]",–,0.0048 µM
"CCc1ccc(NC(=O)Nc2ccc3c(c2)CC[C@H](N)C3)cc1 [Example 64, (S)-1-(6-Amino-5,6,7,8-tetrahydronaphthalen-2-yl)-3-(4-ethylphenyl)urea]",0.0026 µM,0.003 µM
"COc1cccc(Nc2ccc3c(c2)CC[C@H](N)C3)c1 [Example 94, (S)—N6-(3-Methoxyphenyl)-1,2,3,4-tetrahydronaphthalene-2,6-diamine]",0.0462 µM,0.0541 µM
"Cc1cc(C(=O)Nc2ccc3c(c2)OC[C@@H](N)C3)nc(C(F)(F)F)n1 [Example 13, (S)—N-(3-Aminochroman-7-yl)-6-methyl-2-(trifluoromethyl)pyrimidine-4-carboxamide]",0.241 µM,1.45 µM
"CCc1ccc(Nc2ccc3c(c2)CC[C@H](N)C3)cc1 [Example 53, (S)—N6-(4-Ethylphenyl)-1,2,3,4-tetrahydronaphthalene-2,6-diamine]",0.0083 µM,0.006 µM
"N[C@H]1CCc2cc(NC(=O)NCc3cccc(OC(F)(F)F)c3)ccc2C1 [Example 63, (S)-1-(6-Amino-5,6,7,8-tetrahydronaphthalen-2-yl)-3-(3-(trifluoromethoxy)benzyl)urea]",0.0039 µM,0.002 µM
"Cn1nc(C(=O)Nc2ccc3c(c2)OC[C@H](N)C3)cc1-c1cccs1 [Example 85, (R)—N-(3-Aminochroman-7-yl)-1-methyl-5-(thiophen-2-yl)-1H-pyrazole-3-carboxamide]",0.0061 µM,0.0009 µM
"N[C@H]1CCc2cc(Nc3ncc(C(F)(F)F)cn3)ccc2C1 [Example 23, (S)—N6-(5-(Trifluoromethyl)pyrimidin-2-yl)-1,2,3,4-tetrahydronaphthalene-2,6-diamine]",0.0068 µM,0.0213 µM
"N[C@H]1CCc2cc(NC(=O)Nc3ccc(C4CC4)cc3)ccc2C1 [Example 72, (S)-1-(6-Amino-5,6,7,8-tetrahydronaphthalen-2-yl)-3-(4-cyclopropylphenyl)urea]",0.0009 µM,0.001 µM
"CCOc1[nH]nc(C(=O)Nc2ccc3c(c2)OC[C@H](N)C3)c1C [Example 81, (R)—N-(3-Aminochroman-7-yl)-5-ethoxy-4-methyl-1H-pyrazole-3-carboxamide]",0.0277 µM,0.0082 µM
"CCc1n[nH]c(C(=O)Nc2ccc3c(c2)OC[C@H](N)C3)c1C [Example 88, (R)—N-(3-Aminochroman-7-yl)-3-ethyl-4-methyl-1H-pyrazole-5-carboxamide]",0.0119 µM,0.0083 µM
"N[C@H]1CCc2cc(C(=O)Nc3cccc(OC(F)(F)F)c3)ccc2C1 [Example 79, (S)-6-Amino-N-(3-(trifluoromethoxy)phenyl)-5,6,7,8-tetrahydronaphthalene-2-carboxamide]",0.0009 µM,0.0008 µM
"N[C@H]1CCc2cc(Nc3cccc(Cl)c3)ccc2C1 [Example 68, (S)—N6-(3-Chlorophenyl)-1,2,3,4-tetrahydronaphthalene-2,6-diamine]",0.0099 µM,0.019 µM
"CC(=O)Nc1cc(C(=O)Nc2ccc3c(c2)CC[C@H](N)C3)ccn1 [Example 18, (S)-2-Acetamido-N-(6-amino-5,6,7,8-tetrahydronaphthalen-2-yl)isonicotinamide]",0.232 µM,0.71 µM
"N[C@H]1CCc2cc(NC(=O)c3cnc(Cl)c(Cl)c3)ccc2C1 [Example 41, (S)—N-(6-Amino-5,6,7,8-tetrahydronaphthalen-2-yl)-5,6-dichloronicotinamide]",0.0031 µM,0.0031 µM
"N[C@H]1CCc2cc(NC(=O)c3[nH]nc(-c4ccc(Cl)o4)c3Cl)ccc2C1 [Example 25, (S)—N-(6-Amino-5,6,7,8-tetrahydronaphthalen-2-yl)-4-chloro-3-(5-chlorofuran-2-yl)-1H-pyrazole-5-carboxamide]",0.0003 µM,0.0007 µM
"NC1CCc2cc(C(=O)Nc3cccc(Cl)c3)ccc2C1 (stereo not shown) [Example 59, 6-Amino-N-(3-chlorophenyl)-5,6,7,8-tetrahydronaphthalene-2-carboxamide]",0.0109 µM,0.0018 µM
"N[C@H]1COc2cc(NC(=O)c3ncc(C(F)(F)F)cn3)ccc2C1 [Example 84, (R)—N-(3-Aminochroman-7-yl)-5-(trifluoromethyl)pyrimidine-2-carboxamide]",0.0758 µM,0.0371 µM
"Cc1cc(C(=O)Nc2ccc3c(c2)OCC(N)C3)nc(C(F)(F)F)n1 (stereo not shown) [Example 9, N-(3-Aminochroman-7-yl)-6-methyl-2-(trifluoromethyl)pyrimidine-4-carboxamide]",0.114 µM,0.0805 µM
"NC1CCc2cc(NC(=O)c3n[nH]c(C4CC4)c3Br)ccc2C1 (stereo not shown) [Example 2, N-(6-Amino-5,6,7,8-tetrahydronaphthalen-2-yl)-4-bromo-5-cyclopropyl-1H-pyrazole-3-carboxamide]",0.0042 µM,0.0077 µM
"N[C@H]1CCc2cc(NC(=O)NCc3ccc(Cl)cn3)ccc2C1 [Example 62, (S)-1-(6-Amino-5,6,7,8-tetrahydronaphthalen-2-yl)-3-((5-chloropyridin-2-yl)methyl)urea]",0.095 µM,0.0355 µM
